Experimental data reported in PubChem BioAssay AID1963852 (Molecular Pharmacology Branch, DTP, NCI, 2024).

Tested on: 282377-053-R-J1-PDC complex spheroid viability
Assay: Anticancer human tumor 282377-053-R-J1-PDC patient-derived colon adenocarcinoma cell line growth inhibition [POLQ]
Conditions: for IC50: curve of first compound; for viability, T/C: stronger effect = lower value
In short: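 PDC + HUVEC + MSC complex spheroids; POLQ inhibitors ± partner drugs; top conc. at/near clinical Cmax, else 10 microM (SN-38 1 microM), half-log dilutions; 37 degrees C, 5% CO2.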

[1] = second compound 0.0316 µM, first compound 0.0316 µM
[2] = second compound 0.0316 µM, first compound 0.1 µM
[3] = second compound 0.0316 µM, first compound 0.316 µM
[4] = second compound 0.0316 µM, first compound 1 µM
[5] = second compound 0.0316 µM, first compound 3.16 µM
[6] = second compound 0.0316 µM, first compound 10 µM
[7] = second compound 0.1 µM, first compound 0.0316 µM
[8] = second compound 0.1 µM, first compound 0.1 µM
[9] = second compound 0.1 µM, first compound 0.316 µM
[10] = second compound 0.1 µM, first compound 1 µM
[11] = second compound 0.1 µM, first compound 3.16 µM
[12] = second compound 0.1 µM, first compound 10 µM
[13] = second compound 0.316 µM, first compound 0.0316 µM
[14] = second compound 0.316 µM, first compound 0.1 µM
[15] = second compound 0.316 µM, first compound 0.316 µM
[16] = second compound 0.316 µM, first compound 1 µM
[17] = second compound 0.316 µM, first compound 3.16 µM
[18] = second compound 0.316 µM, first compound 10 µM
[19] = second compound 1 µM, first compound 0.0316 µM
[20] = second compound 1 µM, first compound 0.1 µM
[21] = second compound 1 µM, first compound 0.316 µM
[22] = second compound 1 µM, first compound 1 µM
[23] = second compound 1 µM, first compound 3.16 µM
[24] = second compound 1 µM, first compound 10 µM
[25] = second compound 3.16 µM, first compound 0.0316 µM
[26] = second compound 3.16 µM, first compound 0.1 µM
[27] = second compound 3.16 µM, first compound 0.316 µM
[28] = second compound 3.16 µM, first compound 1 µM
[29] = second compound 3.16 µM, first compound 3.16 µM
[30] = second compound 3.16 µM, first compound 10 µM
[31] = second compound 10 µM, first compound 0.0316 µM
[32] = second compound 10 µM, first compound 0.1 µM
[33] = second compound 10 µM, first compound 0.316 µM
[34] = second compound 10 µM, first compound 1 µM
[35] = second compound 10 µM, first compound 3.16 µM
[36] = second compound 10 µM, first compound 10 µM
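Further: spheroids exposed to compounds for seven days.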
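Wherever viability, T/C is given: 100% = DMSO vehicle control viability.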

CC1COCCN1c1cc(-c2ccnn2C)c2ccnc(-c3ccn[nH]3)c2n1 (stereo not drawn) + Nc1ccc(C#CCN(C(=O)Cc2ncc(C(F)(F)F)cc2C(F)(F)F)c2ccc(F)cc2)nn1
IC50 (second compound 0.0316 µM): 2120 nM
IC50 (second compound 0.1 µM): 717 nM
IC50 (second compound 0.316 µM): 826 nM
IC50 (second compound 1 µM): 821 nM
IC50 (second compound 3.16 µM): 997 nM
IC50 (second compound 10 µM): 1200 nM
viability, T/C [1]: 84.6%
viability, T/C [2]: 78.7%
viability, T/C [3]: 69.4%
viability, T/C [4]: 62.3%
viability, T/C [5]: 42.6%
viability, T/C [6]: 35.1%
viability, T/C [7]: 86.2%
viability, T/C [8]: 88%
viability, T/C [9]: 66.4%
viability, T/C [10]: 44.3%
viability, T/C [11]: 41.1%
viability, T/C [12]: 41.2%
viability, T/C [13]: 91%
viability, T/C [14]: 81%
viability, T/C [15]: 58.8%
viability, T/C [16]: 49.4%
viability, T/C [17]: 45.8%
viability, T/C [18]: 41.5%
viability, T/C [19]: 94.5%
viability, T/C [20]: 83.2%
viability, T/C [21]: 67.3%
viability, T/C [22]: 43.8%
viability, T/C [23]: 41.5%
viability, T/C [24]: 33%
viability, T/C [25]: 100%
viability, T/C [26]: 78.3%
viability, T/C [27]: 67.3%
viability, T/C [28]: 49.4%
viability, T/C [29]: 37.3%
viability, T/C [30]: 44.8%
viability, T/C [31]: 103%
viability, T/C [32]: 84.2%
viability, T/C [33]: 78.5%
viability, T/C [34]: 47.9%
viability, T/C [35]: 39.5%
viability, T/C [36]: 46.3%

CCCS(=O)(=O)Nc1ccc(F)c(C(=O)c2c[nH]c3ncc(-c4ccc(Cl)cc4)cc23)c1F + Nc1ccc(C#CCN(C(=O)Cc2ncc(C(F)(F)F)cc2C(F)(F)F)c2ccc(F)cc2)nn1
IC50 (second compound 0.0316 µM): > 10000 nM
IC50 (second compound 0.1 µM): > 10000 nM
IC50 (second compound 0.316 µM): > 10000 nM
IC50 (second compound 1 µM): > 10000 nM
IC50 (second compound 3.16 µM): > 10000 nM
IC50 (second compound 10 µM): > 10000 nM
viability, T/C [1]: 94.3%
viability, T/C [2]: 77%
viability, T/C [3]: 71.1%
viability, T/C [4]: 57.9%
viability, T/C [5]: 60.4%
viability, T/C [6]: 61.9%
viability, T/C [7]: 105%
viability, T/C [8]: 80.2%
viability, T/C [9]: 77%
viability, T/C [10]: 60.5%
viability, T/C [11]: 77.2%
viability, T/C [12]: 80.7%
viability, T/C [13]: 81.5%
viability, T/C [14]: 81%
viability, T/C [15]: 73%
viability, T/C [16]: 70.9%
viability, T/C [17]: 66.2%
viability, T/C [18]: 74.1%
viability, T/C [19]: 99.8%
viability, T/C [20]: 93.9%
viability, T/C [21]: 68.9%
viability, T/C [22]: 62.4%
viability, T/C [23]: 59.1%
viability, T/C [24]: 60.1%
viability, T/C [25]: 120%
viability, T/C [26]: 90%
viability, T/C [27]: 69.5%
viability, T/C [28]: 78.8%
viability, T/C [29]: 63.4%
viability, T/C [30]: 70.4%
viability, T/C [31]: 107%
viability, T/C [32]: 97.6%
viability, T/C [33]: 80.8%
viability, T/C [34]: 71.9%
viability, T/C [35]: 63.9%
viability, T/C [36]: 65.3%

COc1ccc([C@@H](O)c2cc(-c3ncnc4cc(N5CCOCC5)ccc34)c(F)cc2Cl)nn1 + Nc1ccc(C#CCN(C(=O)Cc2ncc(C(F)(F)F)cc2C(F)(F)F)c2ccc(F)cc2)nn1
IC50 (second compound 0.0316 µM): > 10000 nM
IC50 (second compound 0.1 µM): > 10000 nM
IC50 (second compound 0.316 µM): > 10000 nM
IC50 (second compound 1 µM): > 10000 nM
IC50 (second compound 3.16 µM): > 10000 nM
IC50 (second compound 10 µM): > 10000 nM
viability, T/C [1]: 101%
viability, T/C [2]: 98.1%
viability, T/C [3]: 102%
viability, T/C [4]: 93.8%
viability, T/C [5]: 88.3%
viability, T/C [6]: 71.8%
viability, T/C [7]: 94.4%
viability, T/C [8]: 108%
viability, T/C [9]: 97.3%
viability, T/C [10]: 100%
viability, T/C [11]: 85.5%
viability, T/C [12]: 83.2%
viability, T/C [13]: 102%
viability, T/C [14]: 86.2%
viability, T/C [15]: 111%
viability, T/C [16]: 89%
viability, T/C [17]: 106%
viability, T/C [18]: 86.9%
viability, T/C [19]: 106%
viability, T/C [20]: 88.5%
viability, T/C [21]: 95.5%
viability, T/C [22]: 91.9%
viability, T/C [23]: 88.6%
viability, T/C [24]: 84.1%
viability, T/C [25]: 109%
viability, T/C [26]: 105%
viability, T/C [27]: 92.5%
viability, T/C [28]: 100%
viability, T/C [29]: 91%
viability, T/C [30]: 85.4%
viability, T/C [31]: 122%
viability, T/C [32]: 111%
viability, T/C [33]: 98.7%
viability, T/C [34]: 109%
viability, T/C [35]: 100%
viability, T/C [36]: 90.1%

Cn1ncnc1[C@H]1c2n[nH]c(=O)c3cc(F)cc(c23)N[C@@H]1c1ccc(F)cc1 + Nc1ccc(C#CCN(C(=O)Cc2ncc(C(F)(F)F)cc2C(F)(F)F)c2ccc(F)cc2)nn1
IC50 (second compound 0.0316 µM): > 100 nM
IC50 (second compound 0.1 µM): > 100 nM
IC50 (second compound 0.316 µM): > 100 nM
IC50 (second compound 1 µM): > 100 nM
IC50 (second compound 3.16 µM): > 100 nM
IC50 (second compound 10 µM): > 100 nM
viability, T/C (second compound 0.0316 µM, first compound 0.000316 µM): 98.9%
viability, T/C (second compound 0.0316 µM, first compound 0.001 µM): 94.9%
viability, T/C (second compound 0.0316 µM, first compound 0.00316 µM): 91.9%
viability, T/C (second compound 0.0316 µM, first compound 0.01 µM): 101%
viability, T/C [1]: 108%
viability, T/C [2]: 94.3%
viability, T/C (second compound 0.1 µM, first compound 0.000316 µM): 105%
viability, T/C (second compound 0.1 µM, first compound 0.001 µM): 108%
viability, T/C (second compound 0.1 µM, first compound 0.00316 µM): 84.1%
viability, T/C (second compound 0.1 µM, first compound 0.01 µM): 97.3%
viability, T/C [7]: 100%
viability, T/C [8]: 81.9%
viability, T/C (second compound 0.316 µM, first compound 0.000316 µM): 99%
viability, T/C (second compound 0.316 µM, first compound 0.001 µM): 93.7%
viability, T/C (second compound 0.316 µM, first compound 0.00316 µM): 108%
viability, T/C (second compound 0.316 µM, first compound 0.01 µM): 93.8%
viability, T/C [13]: 97.7%
viability, T/C [14]: 95.2%
viability, T/C (second compound 1 µM, first compound 0.000316 µM): 102%
viability, T/C (second compound 1 µM, first compound 0.001 µM): 96.8%
viability, T/C (second compound 1 µM, first compound 0.00316 µM): 94.5%
viability, T/C (second compound 1 µM, first compound 0.01 µM): 86.9%
viability, T/C [19]: 103%
viability, T/C [20]: 104%
viability, T/C (second compound 3.16 µM, first compound 0.000316 µM): 105%
viability, T/C (second compound 3.16 µM, first compound 0.001 µM): 100%
viability, T/C (second compound 3.16 µM, first compound 0.00316 µM): 100%
viability, T/C (second compound 3.16 µM, first compound 0.01 µM): 110%
viability, T/C [25]: 113%
viability, T/C [26]: 93.9%
viability, T/C (second compound 10 µM, first compound 0.000316 µM): 122%
viability, T/C (second compound 10 µM, first compound 0.001 µM): 119%
viability, T/C (second compound 10 µM, first compound 0.00316 µM): 121%
viability, T/C (second compound 10 µM, first compound 0.01 µM): 119%
viability, T/C [31]: 111%
viability, T/C [32]: 127%
